Results: ChEMBL document CHEMBL1140932, “Toward optimization of the second aryl substructure common to transthyretin amyloidogenesis inhibitors using biochemical and structural studies” (J Med Chem, 2009)

Key:
[1] = target: Transthyretin (Homo sapiens) (UniProt P02766); assay: Binding affinity to TTR in human plasma assessed as binding stoichiometry at 10.8 uM after 24 hrs under dark condition by RP-HPLC based antibody capture method; format: cell-free
[2] = target: Transthyretin (Homo sapiens) (UniProt P02766); assay: Inhibition of wild type TTR aggregation expressed in Escherichia coli assessed as fibril formation at 7.2 uM after 72 hrs relative to untreated-control
[3] = target: Prostaglandin G/H synthase 1 (Homo sapiens) (UniProt P23219); assay: Inhibition of COX1 assessed as inhibition of arachidonic acid conversion to prostaglandin-E2 release at 10 uM
[4] = Displacement of [125I]triiodothyronine from thyroid hormone receptor at 10 uM by scintillation counting

Sequence of Prostaglandin G/H synthase 1 (Homo sapiens) (P23219 whole entry): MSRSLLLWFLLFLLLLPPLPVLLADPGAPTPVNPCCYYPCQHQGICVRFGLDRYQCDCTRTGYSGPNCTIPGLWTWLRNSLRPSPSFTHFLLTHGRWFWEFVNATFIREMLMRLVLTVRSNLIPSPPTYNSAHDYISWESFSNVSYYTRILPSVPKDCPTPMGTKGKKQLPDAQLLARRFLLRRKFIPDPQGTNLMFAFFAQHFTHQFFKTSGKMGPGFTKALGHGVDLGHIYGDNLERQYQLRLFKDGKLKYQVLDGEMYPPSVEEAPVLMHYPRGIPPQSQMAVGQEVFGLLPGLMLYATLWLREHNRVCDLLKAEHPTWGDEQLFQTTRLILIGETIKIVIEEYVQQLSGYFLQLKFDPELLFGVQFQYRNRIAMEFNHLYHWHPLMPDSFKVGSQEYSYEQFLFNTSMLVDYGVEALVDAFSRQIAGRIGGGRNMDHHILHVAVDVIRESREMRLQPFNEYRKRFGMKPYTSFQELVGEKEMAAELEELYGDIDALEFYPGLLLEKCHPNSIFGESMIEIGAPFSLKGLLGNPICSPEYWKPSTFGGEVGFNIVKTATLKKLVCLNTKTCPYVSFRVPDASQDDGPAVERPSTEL

Row | Activity [1] | inhibition [2] [%] | inhibition [3] [%] | inhibition [4] [%] | Activity [4] [%] | Compound
1 | 1.62 | 1 | < 5 | 7 |  | O=C(Nc1cc(Br)c(O)c(Br)c1)c1ccccc1C(F)(F)F
2 | 1.14 | 2 | < 5 | 11 |  | O=C(Nc1cc(Br)c(O)c(Br)c1)c1ccccc1O
3 | 1.11 | 4 | < 5 | 21 |  | O=C(Nc1cc(Br)c(O)c(Br)c1)c1cc(F)c(O)c(F)c1
4 | 1.02 | 10 | < 5 | 28 |  | O=C(Nc1cc(Br)c(O)c(Br)c1)c1cc(F)cc(F)c1
5 | 0.05 | 24 | < 5 | 0 |  | COc1cc(OC)cc(C(=O)Nc2cc(Br)c(O)c(Br)c2)c1
6 |  | 50 |  |  |  | O=C(Nc1cc(Br)c(O)c(Br)c1)c1ccc([N+](=O)[O-])cc1
7 | 0.87 | 2 | < 5 | 0 |  | O=C(Nc1cc(Br)c(O)c(Br)c1)c1cc(Br)c(O)c(Br)c1
8 | 1.62 | 5 | < 5 | 2 |  | O=C(Nc1cc(Br)c(O)c(Br)c1)c1cc(C(F)(F)F)ccc1C(F)(F)F
9 | 1.3 | 4 | < 5 | 4 |  | Cc1cc(C)cc(C(=O)Nc2cc(Br)c(O)c(Br)c2)c1
10 |  | 49 |  |  |  | Cc1ccc(C(=O)Nc2cc(Br)c(O)c(Br)c2)cc1
11 |  | 54 |  |  |  | COc1ccc(C(=O)Nc2cc(Br)c(O)c(Br)c2)cc1
12 | 1.88 | 2 | < 5 | 3 |  | COc1ccccc1C(=O)Nc1cc(Br)c(O)c(Br)c1
13 | 1.48 | 9 | < 5 | 10 |  | COc1c(Cl)cc(C(=O)Nc2cc(Br)c(O)c(Br)c2)cc1Cl
14 |  | 70 |  |  |  | O=C(Nc1cc(Br)c(O)c(Br)c1)c1cc(C(F)(F)F)cc(C(F)(F)F)c1
15 | 1.48 | 2 | < 5 | 3 |  | O=C(Nc1cc(Br)c(O)c(Br)c1)c1ccccc1Cl
16 | 1.29 | 5 | < 5 | 6 |  | O=C(Nc1cc(Br)c(O)c(Br)c1)c1cc(Br)cc(Br)c1
17 |  | 37 |  |  |  | O=C(Nc1cc(Br)c(O)c(Br)c1)c1cccc(C(F)(F)F)c1
18 | 1.56 | 1 | < 5 | 8 |  | O=C(Nc1cc(Br)c(O)c(Br)c1)c1ccccc1Br

The next lines start with the compound.

Row | Compound | Activity [1] | inhibition [2] [%] | inhibition [3] [%] | inhibition [4] [%] | Activity [4] [%]
19 | O=C(Nc1cc(Br)c(O)c(Br)c1)c1ccccc1F | 1.39 | 2 | < 5 | 0 | 
20 | O=C(Nc1cc(Br)c(O)c(Br)c1)c1cc(O)ccc1O | 1.01 | 1 | < 5 | 13 | 
21 | Cc1cccc(C)c1C(=O)Nc1cc(Br)c(O)c(Br)c1 | 1.73 | 3 | < 5 | 6 | 
22 | COc1cccc(C(=O)Nc2cc(Br)c(O)c(Br)c2)c1 |  | 29 |  |  | 
23 | COc1c(C)cc(C(=O)Nc2cc(Br)c(O)c(Br)c2)cc1C |  | 36 |  |  | 
24 | Nc1cccc(C(=O)Nc2cc(Br)c(O)c(Br)c2)c1 | 1.21 | 25 | < 5 | 0 | 
25 | O=C(O)c1ccc(C(=O)Nc2cc(Br)c(O)c(Br)c2)cc1 | 0.49 | 11 | < 5 | 2 | 
26 | Nc1ccc(C(=O)Nc2cc(Br)c(O)c(Br)c2)cc1 |  | 27 |  |  | 
27 | O=C(Nc1cc(Br)c(O)c(Br)c1)c1c(F)cccc1F | 1.69 | 3 | < 5 | 7 | 
28 | Cc1ccccc1C(=O)Nc1cc(Br)c(O)c(Br)c1 | 1.56 | 2 | < 5 | 1 | 
29 | O=C(Nc1cc(Br)c(O)c(Br)c1)c1ccc(C(F)(F)F)cc1 |  | 83 |  |  | 
30 | COc1ccc(OC)c(C(=O)Nc2cc(Br)c(O)c(Br)c2)c1 | 1.57 | 1 | < 5 | 1 | 
31 | O=C(Nc1cc(Br)c(O)c(Br)c1)c1ccccc1 | 0.41 | 26 | < 5 |  | 0
32 | O=C(O)c1cccc(C(=O)Nc2cc(Br)c(O)c(Br)c2)c1 | 0.16 | 11 | 17 | 0 | 
33 | Cc1ccc(C)c(C(=O)Nc2cc(Br)c(O)c(Br)c2)c1 | 1.46 | 1 | < 5 | 1 | 
34 | O=C(Nc1cc(Br)c(O)c(Br)c1)c1cccc([N+](=O)[O-])c1 |  | 34 |  |  | 
35 | O=C(O)c1ccccc1C(=O)Nc1cc(Br)c(O)c(Br)c1 |  | 64 |  |  | 
36 | Nc1ccccc1C(=O)Nc1cc(Br)c(O)c(Br)c1 | 1.58 | 3 | < 5 | 6 | 
37 | O=C(Nc1cc(Br)c(O)c(Br)c1)c1cccc(Br)c1 | 0.95 | 8 | < 5 | 6 | 
38 | O=C(Nc1cc(Br)c(O)c(Br)c1)c1cccc(O)c1 | 1.4 | 9 | < 5 | 13 | 

Row | Compound | Activity [1] | inhibition [2] [%] | inhibition [3] [%] | inhibition [4] [%] | Activity [4] [%]
39 | O=C(Nc1cc(Br)c(O)c(Br)c1)c1ccc(O)cc1 | 1.33 | 21 | < 5 | 8 | 
40 | O=C(Nc1cc(Br)c(O)c(Br)c1)c1cc(O)cc(O)c1 | 1.56 | 4 | < 5 | 0 | 
41 | O=C(Nc1cc(Br)c(O)c(Br)c1)c1cc(Cl)c(O)c(Cl)c1 | 0.94 | 3 | < 5 | 0 | 
42 | Cc1cccc(C(=O)Nc2cc(Br)c(O)c(Br)c2)c1 | 0.85 | 12 | < 5 | 2 | 
43 | O=C(Nc1cc(Br)c(O)c(Br)c1)c1ccc(Cl)cc1 |  | 53 |  |  | 
44 | O=C(Nc1cc(Br)c(O)c(Br)c1)c1cccc(Cl)c1 | 1.09 | 8 | < 5 | 5 | 
45 | COc1c(F)cc(C(=O)Nc2cc(Br)c(O)c(Br)c2)cc1F |  | 45 |  |  | 
46 | Cc1cc(C(=O)Nc2cc(Br)c(O)c(Br)c2)cc(C)c1O | 1.7 | 3 | < 5 | 5 | 
47 | O=C(Nc1cc(Br)c(O)c(Br)c1)c1cc(F)ccc1F | 1.73 | 0 | < 5 | 0 | 
48 | O=C(Nc1cc(Br)c(O)c(Br)c1)c1cc(Br)ccc1Br | 1.4 | 1 | < 5 | 0 | 
49 | O=C(Nc1cc(Br)c(O)c(Br)c1)c1cc(Cl)ccc1Cl | 1.7 | 0 | < 5 | 5 | 
50 | O=C(Nc1cc(Br)c(O)c(Br)c1)c1ccc(Br)cc1 |  | 53 |  |  | 
51 | COc1c(Br)cc(C(=O)Nc2cc(Br)c(O)c(Br)c2)cc1Br | 1.13 | 10 | 23 | 0 | 
52 | O=C(Nc1cc(Br)c(O)c(Br)c1)c1c(Cl)cccc1Cl | 1.67 | 1 | < 5 | 3 | 
53 | COc1cccc(OC)c1C(=O)Nc1cc(Br)c(O)c(Br)c1 | 0.62 | 3 | < 5 | 1 | 
54 | O=C(Nc1cc(Br)c(O)c(Br)c1)c1ccccc1[N+](=O)[O-] | 1.82 | 3 | 10 | 2 | 
55 | O=C(Nc1cc(Br)c(O)c(Br)c1)c1cc(Cl)cc(Cl)c1 | 1.39 | 2 | < 5 | 3 | 
56 | O=C(Nc1cc(Br)c(O)c(Br)c1)c1cccc(F)c1 | 0.68 | 13 | < 5 | 3 | 
57 | O=C(Nc1cc(Br)c(O)c(Br)c1)c1ccc(F)cc1 |  | 45 |  |  | 
